# From PubChem BioAssay AID720670 (NMMLSC, 2013)
# Results filed as inconclusive are left out. Activity calls are given as the source filed them.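 The calls were made as follows: active = inhibition of the calcium rise above 50%; inconclusive = blank fluorescence over twice solvent-only controls, so no ratio; inactive = inhibition below 50%.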
# Test system: TALL-104 cells, thapsigargin Ca2+ rise, fura-2 ratio
# Assay: intracellular Ca2+ signaling inhibition in T cells – TALL-104 cells, fura-2 fluorescence, CherryPick01, mechanism study for lytic granule exocytosis inhibitor project (AID 720670)
# Details: at 30 µM; hits give high values
row,Structure (SMILES),inhibition
1,COc1ccc([N+](=O)[O-])cc1Nc1c2ccccc2nc2ccccc12,12.2% (inactive)
2,CCC(=C(c1ccc(OC)cc1)c1ccc(OC)cc1)c1cn(CC(O)CN2CCN(C)CC2)c2ccccc12 (configuration not stated),41.5% (inactive)
3,COc1cc(-c2coc3c(C(=O)NCc4ccc(OC)c(OC)c4)cccc23)ccc1O,15.4% (inactive)
4,CCOC(=O)c1cc(-c2csc(Nc3c(C)cc(C)cc3C)n2)on1,79.7%
5,Cn1sc(=O)c2cc(S(=O)(=O)NC3CC3)ccc21,91.3%
6,O=C(Cn1sc2ccccc2c1=O)NC12CC3CC(CC(C3)C1)C2,3% (inactive)
7,Cc1cc(N2CCN(c3nc(-c4ccc([N+](=O)[O-])cc4)cs3)CC2)c2ccccc2n1,-35.4% (inactive)
8,CC1=C(C)CS(=O)N(S(=O)(=O)c2ccc(Cl)cc2)C1 (configuration not stated),11.4% (inactive)
9,COc1cccc(-c2cnc3c(NC=O)cc(-c4ccccc4)cn23)c1,66.5%
10,CC(=O)Nc1ccc2c(=O)n(-c3ccccc3)sc2c1,16.3% (inactive)
11,O=c1c2ccccc2sn1-c1ccccc1,-10.6% (inactive)
12,CN(C)CCCNC(=S)NCC(c1ccc(Cl)cc1Cl)c1c[nH]c2ccccc12 (configuration not stated),10.4% (inactive)
13,CCc1ccc2nc(N(CCCN(C)C)C(=O)c3ccc(S(=O)(=O)N4CCc5ccccc5C4)cc3)sc2c1,50.9%
14,O=C1Nc2ccc(Br)cc2/C1=C/C(=O)c1ccccc1,15.1% (inactive)
15,N#Cc1c(Nc2ccccc2Cl)s[nH]c1=O,9.3% (inactive)
16,CCCNC(=O)Cn1sc2nc(C)cc(C)c2c1=O,19.7% (inactive)
17,CCOC(=O)c1c(CSc2ccccc2)n(C)c2cc(Br)c(O)c(CN(C)C)c12,70.2%
18,O=C1CC(Sc2nnnn2-c2ccccc2)C(=O)N1c1cccc(Cl)c1 (configuration not stated),6.9% (inactive)
19,CC1(C(=O)OCC(=O)Nc2nc(-c3ccc(F)c(F)c3)cs2)CC1(Cl)Cl (configuration not stated),20.1% (inactive)
20,CCCCn1c(=N)n(CC(=O)c2ccc(Br)s2)c2ccccc21,58.6%
21,CCOc1cc(CNCCc2ccc(S(N)(=O)=O)cc2)ccc1OCc1ccc(Cl)cc1,63.5%

row,Structure (SMILES),inhibition
1,CCCCC[C@@H](C)N1C[C@H](COCc2ccccc2)Oc2cc(N3CC[C@@H](N(C)C)C3)ccc2S1(=O)=O,37.4% (inactive)
2,CCCS(=O)(=O)Nc1ccc(Nc2c3ccccc3nc3ccccc23)c(OC)c1,67.1%
3,COc1ccc(N2C(=O)CC(Sc3nnc(-c4ccccc4)o3)C2=O)cc1 (configuration not stated),-14.7% (inactive)
4,COc1cccc(-c2cnc3c(NC(C)=O)cc(-c4ccccc4OC)cn23)c1,81.3%
5,CCOC(=O)c1nnc(-c2ccccc2)nc1Sc1ccccc1Cl,21.2% (inactive)
6,CCCCC[C@@H](C)N1C[C@@H](COCc2ccccc2)Oc2cc(N3CC[C@@H](N(C)C)C3)ccc2S1(=O)=O,21.3% (inactive)
7,COc1cccc(NC(=O)Nc2nc(-c3ccc(OC)c(OC)c3)cs2)c1,90.9%
8,CCCCC[C@@H](C)N1C[C@@H](COCc2ccccc2)Oc2cc(N3CC[C@H](N(C)C)C3)ccc2S1(=O)=O,37.6% (inactive)
9,COc1ccccc1CNc1nc(NCc2ccc3occc3c2)c2sccc2n1,8.8% (inactive)
10,N#Cc1ccc(NC(=O)Nc2ccc(Oc3ccc(NC(=O)Nc4ccc(C#N)cc4)cc3)cc2)cc1,-1.1% (inactive)
11,Cc1ccc(-n2nnc3c(=O)oc4ccccc4c32)cc1,116%
12,O=c1c2ccc(F)cc2sn1-c1ccccc1,7.1% (inactive)
13,COC(=O)c1c(NC(=O)c2nc3ccccc3s2)sc2c1CC(C)(C)NC2(C)C,41.7% (inactive)
14,COc1cccc(-c2cnc3c(NC(C)=O)cc(-c4ccsc4)cn23)c1,39.6% (inactive)
15,CCc1ccc(/C=C2/Sc3ccccc3N(CC(=O)NCCCN3CCOCC3)C2=O)cc1,3.8% (inactive)
16,Cc1ccc(Nc2nc(NCc3ccco3)c3ccccc3n2)cc1,-2.3% (inactive)
17,CC1COCC(C)N1C1=C(Cl)C(=O)c2ccccc2C1=O (configuration not stated),27% (inactive)
18,CC(C)(c1ccccc1)c1ccc(OCC(O)CNC2CCN(Cc3ccccc3)CC2)cc1 (configuration not stated),27.1% (inactive)
19,c1ccc(CNc2nc(NCC3CC3)nc3cc(-c4ccccc4)sc23)cc1,70%
20,CC(=O)Nc1ccc2sn(-c3ccccc3)c(=O)c2c1,12.6% (inactive)
21,CC1=NOC(=O)/C1=C/c1ccc(-c2ccc(Cl)cc2)o1,18.1% (inactive)

row,Structure (SMILES),inhibition
1,CCOC(=O)c1c(NC(=O)COc2ccccc2OCC)sc2c1CC(C)(C)NC2(C)C,32.1% (inactive)
2,CCOc1ccc2nc(C)cc(Nc3cccc([N+](=O)[O-])c3)c2c1,77.7%
3,O=CNc1cc(-c2ccsc2)cn2c(-c3ccccc3)cnc12,11% (inactive)
4,COc1ccccc1CNc1nc(NCc2ccc(C(C)C)cc2)c2sccc2n1,4.1% (inactive)
5,COC(=O)c1c(NC(=O)c2ccc(C(=O)c3ccccc3)cc2)sc2c1CC(C)(C)NC2(C)C,73.3%
6,O=S(=O)(c1ccccc1)c1nnn2c1nc(NC1CCN(Cc3ccccc3)CC1)c1cc(Cl)ccc12,79.3%
7,COC(=O)[C@]12CCCCC=C1N(Cc1cccc3ccccc13)C(=O)[C@H](CC(=O)NCc1ccc(OC)c(OC)c1)C2,6.3% (inactive)
8,COc1ccc(-c2cc(NC=O)c3ncc(-c4ccccc4)n3c2)cc1OC,31.5% (inactive)
9,O=C1C=CC(=O)N1N(c1ccccc1)c1ccccc1,11.2% (inactive)
10,COc1ccc(-n2sc3ccccc3c2=O)cc1,19.8% (inactive)
11,Cc1ccc(S(=O)(=O)n2ccc3c(OCCOCCNCc4ccc(F)cc4)cccc32)cc1,39.2% (inactive)
12,CN(c1ccccc1)S(=O)(=O)c1cccc(C(=O)NCCc2c[nH]c3ccccc23)c1,78.8%
13,COc1ccc(-c2cc(NC=O)c3ncc(-c4cccc(OC)c4)n3c2)cc1,22.8% (inactive)
14,O=C(OCc1ccccc1)N(CCCCN(CCCNCc1ccccc1)C(=O)OCc1ccccc1)CCCNCc1ccccc1,57.3%
15,O=C(Cn1sc2ccccc2c1=O)Nc1ccc(F)cc1,-21.1% (inactive)
16,CCc1nc2ccc(C(=O)NC3CCN(Cc4ccccc4)CC3)cn2c1N(C)Cc1cc2ccccc2s1,3.6% (inactive)
17,OC(CNCC(c1ccc(Cl)cc1Cl)c1c[nH]c2ccccc12)c1ccccc1 (configuration not stated),34.1% (inactive)
18,O=C(Nc1ccc(F)cc1)c1nc(S(=O)(=O)Cc2ccccc2)ncc1Cl,75.7%
19,O=c1c2ccccc2sn1-c1ccccc1F,18.8% (inactive)
20,CCOc1ccc2nc(N(CCCN(C)C)C(=O)c3ccc(S(=O)(=O)N4CCc5ccccc5C4)cc3)sc2c1,69.4%
